Results from patent publication US8952024B2, “Herbicidal pyrimidone derivatives” (E I du Pont de Nemours and Company, priority 2009, dated 2015).

Legend:
Experiment in all cases: Test B pre-/postemergence plant response
Assay type in all cases: in vivo
[1] = test system: Italian ryegrass (Lolium multiflorum); settings: Postemergence
Summary of the method: (§1)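 Each species received compound formulated in non-phytotoxic solvent with surfactant, either at planting into a loam and sand blend or as a foliar spray once plants reached 2 to 18 cm in peat-based medium. Plants stayed in the greenhouse 13 to 15 days before visual evaluation against controls, scored 0 (no effect) to 100 (complete control).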

[2] = test system: Surinam grass (Brachiaria decumbens); settings: Postemergence
Summary of the method: as §1

[3] = test system: downy bromegrass (Bromus tectorum); settings: for Bromegrass, Downy plant response rating (0 to 100 scale): postemergence, 0 is no effect, 100 is complete control; for Plant response rating, Bromegrass, Downy: Postemergence
Summary of the method: as §1

[4] = test system: goosegrass (Eleusine indica); settings: Postemergence
Summary of the method: as §1

[5] = test system: green foxtail (Setaria viridis); settings: Postemergence
Summary of the method: as §1

[6] = test system: lambsquarters (Chenopodium album); settings: Postemergence
Summary of the method: as §1

[7] = test system: large crabgrass (Digitaria sanguinalis); settings: Postemergence
Summary of the method: as §1

[8] = test system: pigweed (Amaranthus retroflexus); settings: Postemergence
Summary of the method: as §1

[9] = test system: velvetleaf (Abutilon theophrasti); settings: Postemergence
Summary of the method: as §1

[10] = test system: wheat (Triticum aestivum); settings: Postemergence
Summary of the method: as §1

[11] = test system: woolly cupgrass (Eriochloa villosa); settings: Postemergence
Summary of the method: as §1

[12] = test system: yellow nutsedge (Cyperus esculentus); settings: Postemergence
Summary of the method: as §1

[13] = 31 g ai/ha, 0 to 100 scale (0 no effect, 100 complete control)
[14] = 125 g ai/ha, scale 0 to 100 (0 no effect, 100 complete control)
[15] = 250 g ai/ha, scale 0 to 100 (0 no effect, 100 complete control), 13 to 15 days
[16] = 62 g ai/ha, scale 0 to 100 (0 no effect, 100 complete control)

Compound: Cc1ccc(Cl)cc1-n1c(-c2cccc(F)c2)ncc(C(=O)C2=C(O)CCCC2=O)c1=O [Compound 184]
- Plant response rating, Ryegrass, Italian [1, 13]: 20
- Plant response rating, Ryegrass, Italian [1, 14]: 45
- Plant response rating, Ryegrass, Italian [1, 15]: 60
- Plant response rating, Surinam Grass [2, 13]: 80
- Plant response rating, Surinam Grass [2, 14]: 100
- Plant response rating, Surinam Grass [2, 15]: 100
- Bromegrass, Downy plant response rating (0 to 100 scale) ([3]; 62 g ai/ha, 13 to 15 days): 50
- Plant response rating, Bromegrass, Downy [3, 13]: 40
- Plant response rating, Bromegrass, Downy [3, 14]: 50
- Plant response rating, Bromegrass, Downy [3, 15]: 60
- Plant response rating, Goosegrass [4, 13]: 100
- Plant response rating, Goosegrass [4, 14]: 100
- Plant response rating, Goosegrass [4, 15]: 100
- Plant response rating, Foxtail, Green [5, 13]: 30
- Plant response rating, Foxtail, Green [5, 14]: 85
- Plant response rating, Foxtail, Green [5, 15]: 98
- Plant response rating, Lambsquarters [6, 13]: 80
- Plant response rating, Lambsquarters [6, 14]: 100
- Plant response rating, Lambsquarters [6, 15]: 100
- Plant response rating, Crabgrass, Large [7, 13]: 100
- Plant response rating, Crabgrass, Large [7, 14]: 100
- Plant response rating, Crabgrass, Large [7, 15]: 100
- Plant response rating, Pigweed [8, 13]: 70
- Plant response rating, Pigweed [8, 14]: 75
- Plant response rating, Pigweed [8, 15]: 100
- Plant response rating, Velvetleaf [9, 13]: 85
- Plant response rating, Velvetleaf [9, 14]: 100
- Plant response rating, Velvetleaf [9, 15]: 100
- Plant response rating, Wheat [10, 13]: 30
- Plant response rating, Wheat [10, 14]: 55
- Plant response rating, Wheat [10, 15]: 60
- Plant response rating, Cupgrass, Woolly [11, 13]: 75
- Plant response rating, Cupgrass, Woolly [11, 14]: 100
- Plant response rating, Cupgrass, Woolly [11, 15]: 100
- Plant response rating, Nutsedge, Yellow [12, 13]: 35
- Plant response rating, Nutsedge, Yellow [12, 14]: 45
- Plant response rating, Nutsedge, Yellow [12, 15]: 75

Compound: CCCn1c(-c2cccc(Cl)c2)ncc(C(=O)C2=C(O)CCCC2=O)c1=O [Compound 190]
- Plant response rating, Ryegrass, Italian [1, 13]: 0
- Plant response rating, Ryegrass, Italian [1, 14]: 20
- Plant response rating, Ryegrass, Italian [1, 15]: 30
- Plant response rating, Surinam Grass [2, 13]: 60
- Plant response rating, Surinam Grass [2, 14]: 75
- Plant response rating, Surinam Grass [2, 15]: 90
- Bromegrass, Downy plant response rating (0 to 100 scale) ([3]; 62 g ai/ha, 13 to 15 days): 30
- Plant response rating, Bromegrass, Downy [3, 13]: 5
- Plant response rating, Bromegrass, Downy [3, 14]: 35
- Plant response rating, Bromegrass, Downy [3, 15]: 35
- Plant response rating, Goosegrass [4, 13]: 70
- Plant response rating, Goosegrass [4, 14]: 80
- Plant response rating, Goosegrass [4, 15]: 98
- Plant response rating, Foxtail, Green [5, 13]: 25
- Plant response rating, Foxtail, Green [5, 14]: 45
- Plant response rating, Foxtail, Green [5, 15]: 70
- Plant response rating, Lambsquarters [6, 13]: 80
- Plant response rating, Lambsquarters [6, 14]: 100
- Plant response rating, Lambsquarters [6, 15]: 100
- Plant response rating, Crabgrass, Large [7, 13]: 60
- Plant response rating, Crabgrass, Large [7, 14]: 80
- Plant response rating, Crabgrass, Large [7, 15]: 90
- Plant response rating, Pigweed [8, 13]: 65
- Plant response rating, Pigweed [8, 14]: 100
- Plant response rating, Pigweed [8, 15]: 100
- Plant response rating, Velvetleaf [9, 13]: 100
- Plant response rating, Velvetleaf [9, 14]: 100
- Plant response rating, Velvetleaf [9, 15]: 100
- Plant response rating, Wheat [10, 13]: 0
- Plant response rating, Wheat [10, 14]: 30
- Plant response rating, Wheat [10, 15]: 30
- Plant response rating, Cupgrass, Woolly [11, 13]: 75
- Plant response rating, Cupgrass, Woolly [11, 14]: 80
- Plant response rating, Cupgrass, Woolly [11, 15]: 85
- Plant response rating, Nutsedge, Yellow [12, 13]: 35
- Plant response rating, Nutsedge, Yellow [12, 14]: 65
- Plant response rating, Nutsedge, Yellow [12, 15]: 75

Compound: Cc1cc(-n2c(-c3cccc(F)c3)ncc(C(=O)C3=C(O)CCCC3=O)c2=O)ccc1F [Compound 191]
- Plant response rating, Ryegrass, Italian [1, 13]: 40
- Plant response rating, Ryegrass, Italian [1, 16]: 40
- Plant response rating, Ryegrass, Italian [1, 14]: 50
- Plant response rating, Ryegrass, Italian [1, 15]: 50
- Plant response rating, Surinam Grass [2, 13]: 70
- Plant response rating, Surinam Grass [2, 16]: 85
- Plant response rating, Surinam Grass [2, 14]: 90
- Plant response rating, Surinam Grass [2, 15]: 98
- Plant response rating, Bromegrass, Downy [3, 13]: 35
- Plant response rating, Bromegrass, Downy [3, 16]: 40
- Plant response rating, Bromegrass, Downy [3, 14]: 50
- Plant response rating, Bromegrass, Downy [3, 15]: 75
- Plant response rating, Goosegrass [4, 13]: 95
- Plant response rating, Goosegrass [4, 16]: 98
- Plant response rating, Goosegrass [4, 14]: 100
- Plant response rating, Goosegrass [4, 15]: 100
- Plant response rating, Foxtail, Green [5, 13]: 40
- Plant response rating, Foxtail, Green [5, 16]: 55
- Plant response rating, Foxtail, Green [5, 14]: 80
- Plant response rating, Foxtail, Green [5, 15]: 98
- Plant response rating, Lambsquarters [6, 13]: 75
- Plant response rating, Lambsquarters [6, 16]: 80
- Plant response rating, Lambsquarters [6, 14]: 98
- Plant response rating, Lambsquarters [6, 15]: 100
- Plant response rating, Crabgrass, Large [7, 13]: 85
- Plant response rating, Crabgrass, Large [7, 16]: 100
- Plant response rating, Crabgrass, Large [7, 14]: 100
- Plant response rating, Crabgrass, Large [7, 15]: 100
- Plant response rating, Pigweed [8, 13]: 80
- Plant response rating, Pigweed [8, 16]: 85
- Plant response rating, Pigweed [8, 14]: 98
- Plant response rating, Pigweed [8, 15]: 100
- Plant response rating, Velvetleaf [9, 13]: 75
- Plant response rating, Velvetleaf [9, 16]: 80
- Plant response rating, Velvetleaf [9, 14]: 90
- Plant response rating, Velvetleaf [9, 15]: 100
- Plant response rating, Wheat [10, 13]: 35
- Plant response rating, Wheat [10, 16]: 40
- Plant response rating, Wheat [10, 14]: 55
- Plant response rating, Wheat [10, 15]: 65
- Plant response rating, Cupgrass, Woolly [11, 13]: 85
- Plant response rating, Cupgrass, Woolly [11, 16]: 90
- Plant response rating, Cupgrass, Woolly [11, 14]: 90
- Plant response rating, Cupgrass, Woolly [11, 15]: 98
- Plant response rating, Nutsedge, Yellow [12, 13]: 40
- Plant response rating, Nutsedge, Yellow [12, 16]: 40
- Plant response rating, Nutsedge, Yellow [12, 14]: 55
- Plant response rating, Nutsedge, Yellow [12, 15]: 70

Compound: O=C1CCCC(O)=C1C(=O)c1cnc(-c2ccc(F)cc2)n(C2CCCCC2)c1=O [Compound 197]
- Plant response rating, Ryegrass, Italian [1, 13]: 0
- Plant response rating, Ryegrass, Italian [1, 16]: 0
- Plant response rating, Ryegrass, Italian [1, 15]: 35
- Plant response rating, Surinam Grass [2, 13]: 50
- Plant response rating, Surinam Grass [2, 16]: 55
- Plant response rating, Surinam Grass [2, 15]: 70
- Plant response rating, Bromegrass, Downy [3, 13]: 15
- Plant response rating, Bromegrass, Downy [3, 16]: 15
- Plant response rating, Bromegrass, Downy [3, 14]: 30
- Plant response rating, Bromegrass, Downy [3, 15]: 30
- Plant response rating, Goosegrass [4, 13]: 85
- Plant response rating, Goosegrass [4, 16]: 98
- Plant response rating, Goosegrass [4, 14]: 100
- Plant response rating, Goosegrass [4, 15]: 100
- Plant response rating, Foxtail, Green [5, 13]: 5
- Plant response rating, Foxtail, Green [5, 16]: 30
- Plant response rating, Foxtail, Green [5, 14]: 50
- Plant response rating, Foxtail, Green [5, 15]: 70
- Plant response rating, Lambsquarters [6, 13]: 95
- Plant response rating, Lambsquarters [6, 16]: 100
- Plant response rating, Lambsquarters [6, 14]: 100
- Plant response rating, Lambsquarters [6, 15]: 100
- Plant response rating, Crabgrass, Large [7, 13]: 75
- Plant response rating, Crabgrass, Large [7, 16]: 85
- Plant response rating, Crabgrass, Large [7, 14]: 98
- Plant response rating, Crabgrass, Large [7, 15]: 100
- Plant response rating, Pigweed [8, 13]: 80
- Plant response rating, Pigweed [8, 16]: 90
- Plant response rating, Pigweed [8, 15]: 100
- Plant response rating, Velvetleaf [9, 13]: 80
- Plant response rating, Velvetleaf [9, 16]: 80
- Plant response rating, Velvetleaf [9, 15]: 100
- Plant response rating, Wheat [10, 13]: 0
- Plant response rating, Wheat [10, 16]: 0
- Plant response rating, Wheat [10, 15]: 40
- Plant response rating, Cupgrass, Woolly [11, 13]: 70
- Plant response rating, Cupgrass, Woolly [11, 16]: 85
- Plant response rating, Cupgrass, Woolly [11, 14]: 90
- Plant response rating, Cupgrass, Woolly [11, 15]: 98
- Plant response rating, Nutsedge, Yellow [12, 13]: 45
- Plant response rating, Nutsedge, Yellow [12, 16]: 55
- Plant response rating, Nutsedge, Yellow [12, 14]: 65
- Plant response rating, Nutsedge, Yellow [12, 15]: 75
